The record followed here is US11591341B2 (ALIGOS THERAPEUTICS, INC., priority 2019, dated 2023).

Molecules are shown by their SMILES.

Usually EC50 stands for the concentration that produces a half-maximal response.

This experiment deals with HBV. Nature of the experiment: HBV-DNA Antiviral Assay Using HepG2.117 Cells (intracellular HBV DNA by qPCR). It counts as cell-based, hepatitis B virus (genotype D). Particulars: Hepatitis B virus, HepG2.117. The method in brief: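 Endpoint: qPCR copy number of intracellular HBV DNA after 3-day compound exposure, with inhibition set relative to the 2% DMSO control. The cells were doxycycline-free HepG2.117 carrying a Tet-off genotype D genome, dosed at nine 4-fold dilutions. A duplicate plate gave ATP-based viability (CC50).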
`C[C@@H](NC(=O)c1c2n(c(=O)n1-c1ccc(OCC(F)(F)F)cc1)CCN(C(=O)c1ccc(Br)c(Cl)c1)C2)c1ccc(OCC(N)=O)cc1-n1cccn1` (stereo in doubt) [Example 381, 7-(4-bromo-3-chloro-benzoyl)-3-oxo-N-[rac-(1R)-1-[4-(2-amino-2-oxo-ethoxy)-2-pyrazol-1-yl-phenyl]ethyl]-2-[4-(2,2,2-trifluoroethoxy)phenyl]-6,8-dihydro-5H-imidazo[1,5-a]pyrazine-1-carboxamide]: the EC50 is greater than 5 µM.
The figure for `C[C@H](NC(=O)c1c2n(c(=O)n1-c1ccc(OCC(F)(F)F)cc1)CCN(C(=O)c1ccc(Br)c(Cl)c1)C2)c1cccc2nccnc12` (stereo in doubt) [Example 384, 7-(4-bromo-3-chloro-benzoyl)-3-oxo-N-[rac-(1S)-1-quinoxalin-5-ylethyl]-2-[4-(2,2,2-trifluoroethoxy)phenyl]-6,8-dihydro-5H-imidazo[1,5-a]pyrazine-1-carboxamide] is 0.1 to 0.5 µM; for `C[C@@H](NC(=O)c1c2n(c(=O)n1-c1ccc(OCC(F)(F)F)cc1)CCN(C(=O)c1ccc(Br)c(Cl)c1)C2)c1cccc2nccnc12` (stereo in doubt) [Example 385, 7-(4-bromo-3-chloro-benzoyl)-3-oxo-N-[rac-(1R)-1-quinoxalin-5-ylethyl]-2-[4-(2,2,2-trifluoroethoxy)phenyl]-6,8-dihydro-5H-imidazo[1,5-a]pyrazine-1-carboxamide] it is 0.1 to 0.5 µM; for `C[C@@H](NC(=O)c1c2n(c(=O)n1-c1ccc(-n3cccn3)cc1)CCN(C(=O)c1ccc(Br)c(Cl)c1)C2)c1ccccc1F` (stereo in doubt) [Example 405, 7-(4-bromo-3-chloro-benzoyl)-3-oxo-2-(4-pyrazol-1-ylphenyl)-N-[rac-(1R)-1-(2-fluorophenyl)ethyl]-6,8-dihydro-5H-imidazo[1,5-a]pyrazine-1-carboxamide] it is less than 0.1 µM.
`C[C@H](NC(=O)c1c2n(c(=O)n1-c1ccc(-n3cccn3)cc1)CCN(C(=O)c1ccc(Br)c(Cl)c1)C2)c1ccccc1F` (stereo in doubt) [Example 409, 7-(4-bromo-3-chloro-benzoyl)-3-oxo-2-(4-pyrazol-1-ylphenyl)-N-[rac-(1S)-1-(2-fluorophenyl)ethyl]-6,8-dihydro-5H-imidazo[1,5-a]pyrazine-1-carboxamide] registered an EC50 of 0.5 to 5 µM.
The figure for `C[C@H]1Cn2c(c(C(=O)NCc3ccccc3-n3cccn3)n(-c3ccc(OC4CC4)cc3)c2=O)CN1C(=O)c1ccc(Br)c(Cl)c1` (stereo in doubt) [Example 438, rac-(6S)-7-(4-bromo-3-chloro-benzoyl)-2-[4-(cyclopropoxy)phenyl]-6-methyl-3-oxo-N-[(2-pyrazol-1-ylphenyl)methyl]-6,8-dihydro-5H-imidazo[1,5-a]pyrazine-1-carboxamide] is less than 0.1 µM.
The figure for `C[C@@H]1Cn2c(c(C(=O)NCc3ccccc3-n3cccn3)n(-c3ccc(OC4CC4)cc3)c2=O)CN1C(=O)c1ccc(Br)c(Cl)c1` (stereo in doubt) [Example 439, rac-(6R)-7-(4-bromo-3-chloro-benzoyl)-2-[4-(cyclopropoxy)phenyl]-6-methyl-3-oxo-N-[(2-pyrazol-1-ylphenyl)methyl]-6,8-dihydro-5H-imidazo[1,5-a]pyrazine-1-carboxamide] is 0.1 to 0.5 µM.
The compound `C[C@@H]1Cn2c(c(C(=O)NCc3ccccc3-n3cncn3)n(-c3ccc(OC4CC4)cc3)c2=O)CN1C(=O)c1ccc(Br)c(Cl)c1` (stereo in doubt) [Example 447, rac-(6R)-7-(4-bromo-3-chloro-benzoyl)-2-[4-(cyclopropoxy)phenyl]-6-methyl-3-oxo-N-[[2-(1,2,4-triazol-1-yl)phenyl]methyl]-6,8-dihydro-5H-imidazo[1,5-a]pyrazine-1-carboxamide] yielded an EC50 of 0.1 to 0.5 µM.
The figure for `C[C@H]1Cn2c(c(C(=O)NCc3ccccc3-n3cncn3)n(-c3ccc(OC4CC4)cc3)c2=O)CN1C(=O)c1ccc(Br)c(Cl)c1` (stereo in doubt) [Example 448, rac-(6S)-7-(4-bromo-3-chloro-benzoyl)-2-[4-(cyclopropoxy)phenyl]-6-methyl-3-oxo-N-[[2-(1,2,4-triazol-1-yl)phenyl]methyl]-6,8-dihydro-5H-imidazo[1,5-a]pyrazine-1-carboxamide] is less than 0.1 µM; for `COc1ccc(CNC(=O)c2c3n(c(=O)n2CCc2ccccc2)CCN(C(=O)c2ccc(Br)c(Cl)c2)C3)cc1` [Example 15, 7-(4-bromo-3-chlorobenzoyl)-N-[(4-methoxyphenyl)methyl]-3-oxo-2-(2-phenylethyl)-5H,6H,8H-imidazo[1,5-a]pyrazine-1-carboxamide] it is greater than 5 µM.
The figure for `COc1ccc(CNC(=O)c2c3n(c(=O)n2-c2cccc(OC)c2)CCN(C(=O)c2ccc(Br)c(Cl)c2)C3)cc1` [Example 21, 7-(4-bromo-3-chloro-benzoyl)-2-(3-methoxyphenyl)-N-[(4-methoxyphenyl)methyl]-3-oxo-6,8-dihydro-5H-imidazo[1,5-a]pyrazine-1-carboxamide] is 0.5 to 5 µM; for `O=C(NCc1ccccc1)c1c2n(c(=O)n1-c1ccc(F)cc1)CCN(C(=O)c1ccc(Br)c(Cl)c1)C2` [Example 22, N-benzyl-7-(4-bromo-3-chloro-benzoyl)-2-(4-fluorophenyl)-3-oxo-6,8-dihydro-5H-imidazo[1,5-a]pyrazine-1-carboxamide] it is 0.5 to 5 µM.
The figure for `O=C(NCc1ccccc1)c1c2n(c(=O)n1-c1cccc(F)c1)CCN(C(=O)c1ccc(Br)c(Cl)c1)C2` [Example 23, N-benzyl-7-(4-bromo-3-chloro-benzoyl)-2-(3-fluorophenyl)-3-oxo-6,8-dihydro-5H-imidazo[1,5-a]pyrazine-1-carboxamide] is 0.5 to 5 µM.
As for `COc1ccc(-n2c(C(=O)NCc3ccccc3)c3n(c2=O)CCN(C(=O)c2ccc(Br)c(Cl)c2)C3)cc1` [Example 24, N-benzyl-7-(4-bromo-3-chloro-benzoyl)-2-(4-methoxyphenyl)-3-oxo-6,8-dihydro-5H-imidazo[1,5-a]pyrazine-1-carboxamide], the EC50 was 0.1 to 0.5 µM.
The same measure for `NC(=O)c1ccc(-n2c(C(=O)NCc3ccccc3)c3n(c2=O)CCN(C(=O)c2ccc(Br)c(Cl)c2)C3)cc1` [Example 25, N-benzyl-7-(4-bromo-3-chloro-benozyl)-2-(4-carbamoylphenyl)-3-oxo-6,8-dihydro-5H-imidazo[1,5-a]pyrazine-1-carboxamide]: greater than 5 µM.
The same measure for `O=C(NCc1ccccc1)c1c2n(c(=O)n1-c1ccc(Cl)cc1)CCN(C(=O)c1ccc(Br)c(Cl)c1)C2` [Example 26, N-benzyl-7-(4-bromo-3-chloro-benzoyl)-2-(4-chlorophenyl)-3-oxo-6,8-dihydro-5H-imidazo[1,5-a]pyrazine-1-carboxamide]: 0.5 to 5 µM; for `CN(Cc1ccccc1)C(=O)c1c2n(c(=O)n1-c1ccccc1)CCN(C(=O)c1ccc(Br)c(Cl)c1)C2` [Example 27, N-benzyl-7-(4-bromo-3-chloro-benzoyl)-N-methyl-3-oxo-2-phenyl-6,8-dihydro-5H-imidazo[1,5-a]pyrazine-1-carboxamide]: 0.5 to 5 µM; for `O=C(NCCc1ccccc1)c1c2n(c(=O)n1-c1ccccc1)CCN(C(=O)c1ccc(Br)c(Cl)c1)C2` [Example 28, 7-(4-bromo-3-chloro-benzoyl)-3-oxo-2-phenyl-N-(2-phenylethyl)-6,8-dihydro-5H-imidazo[1,5-a]pyrazine-1-carboxamide]: 0.5 to 5 µM.
The same measure for `O=C(NCc1ccccc1)c1c2n(c(=O)n1-c1cccc(Cl)c1)CCN(C(=O)c1ccc(Br)c(Cl)c1)C2` [Example 29, N-benzyl-7-(4-bromo-3-chloro-benzoyl)-2-(3-chlorophenyl)-3-oxo-6,8-dihydro-5H-imidazo[1,5-a]pyrazine-1-carboxamide]: 0.5 to 5 µM; for `CC(C)(NC(=O)c1c2n(c(=O)n1-c1ccccc1)CCN(C(=O)c1ccc(Br)c(Cl)c1)C2)c1ccccc1` [Example 30, 7-(4-bromo-3-chloro-benzoyl)-N-(1-methyl-1-phenyl-ethyl)-3-oxo-2-phenyl-6,8-dihydro-5H-imidazo[1,5-a]pyrazine-1-carboxamide]: greater than 5 µM.
`O=C(NC1(c2ccccc2)CC1)c1c2n(c(=O)n1-c1ccccc1)CCN(C(=O)c1ccc(Br)c(Cl)c1)C2` [Example 31, 7-(4-bromo-3-chloro-benzoyl)-3-oxo-2-phenyl-N-(1-phenylcyclopropyl)-6,8-dihydro-5H-imidazo[1,5-a]pyrazine-1-carboxamide] gave an EC50 greater than 5 µM.
The figure for `COc1ccc(CNC(=O)c2c3n(c(=O)n2-c2ccccc2)CCN(C(=O)c2ccc(Br)c(Cl)c2)C3)cc1OC` [Example 32, 7-(4-bromo-3-chloro-benzoyl)-N-[(3,4-dimethoxyphenyl)methyl]-3-oxo-2-phenyl-6,8-dihydro-5H-imidazo[1,5-a]pyrazine-1-carboxamide] is 0.1 to 0.5 µM.
In the case of `COc1cccc(CNC(=O)c2c3n(c(=O)n2-c2ccccc2)CCN(C(=O)c2ccc(Br)c(Cl)c2)C3)c1` [Example 33, 7-(4-bromo-3-chloro-benzoyl)-N-[(3-methoxyphenyl)methyl]-3-oxo-2-phenyl-6,8-dihydro-5H-imidazo[1,5-a]pyrazine-1-carboxamide], the EC50 lay in the range of 0.1 to 0.5 µM.
The figure for `O=C(NCc1ccccc1)c1c2n(c(=O)n1-c1ccccc1)CCN(C(=O)c1ccc(Cl)c(Cl)c1)C2` [Example 34, N-benzyl-7-(3,4-dichlorobenzoyl)-3-oxo-2-phenyl-6,8-dihydro-5H-imidazo[1,5-a]pyrazine-1-carboxamide] is 0.5 to 5 µM; for `NC(=O)c1cccc(-n2c(C(=O)NCc3ccccc3)c3n(c2=O)CCN(C(=O)c2ccc(Br)c(Cl)c2)C3)c1` [Example 35, N-benzyl-7-(4-bromo-3-chloro-benzoyl)-2-(3-carbamoylphenyl)-3-oxo-6,8-dihydro-5H-imidazo[1,5-a]pyrazine-1-carboxamide] it is greater than 5 µM.
